This note sets out measurements from patent US20190352268A1, “CANNABINOID RECEPTOR MEDIATING COMPOUNDS” (The USA, as represented by the Secretary, Department of …, priority 2015, published 2019).

Structures are written as SMILES.

The target of the first assay is CB1 (Mus musculus, UniProt P47746). Nature of the assay: CB1 radioligand displacement assay in mouse brain membranes. Also on record: radioligand displacement assay in mouse brain membranes; from tissue; host or cells: mouse brain membranes. Type of assay: binding.
Chain of CB1 (P47746 whole entry): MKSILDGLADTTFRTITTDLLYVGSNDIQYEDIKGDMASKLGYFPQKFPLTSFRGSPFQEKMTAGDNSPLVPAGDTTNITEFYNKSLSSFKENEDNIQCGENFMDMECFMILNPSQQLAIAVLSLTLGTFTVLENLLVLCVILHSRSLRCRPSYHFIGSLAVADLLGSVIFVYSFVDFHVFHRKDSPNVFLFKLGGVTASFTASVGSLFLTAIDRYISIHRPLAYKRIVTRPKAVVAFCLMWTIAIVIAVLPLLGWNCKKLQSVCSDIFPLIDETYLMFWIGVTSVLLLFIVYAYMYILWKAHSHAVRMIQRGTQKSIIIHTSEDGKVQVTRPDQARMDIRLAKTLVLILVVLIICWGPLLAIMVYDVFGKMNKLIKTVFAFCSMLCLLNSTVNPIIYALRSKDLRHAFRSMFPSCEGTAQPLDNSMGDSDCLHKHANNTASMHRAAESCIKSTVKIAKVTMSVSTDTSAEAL
Conditions: not given
Background: Displacement assays read how much labelled ligand stays bound in the presence of the test substance.
In general, Ki refers to the dissociation constant of the complex between target and ligand, obtained from inhibition or displacement. The molecule `CC(C)(C)OC(=O)N1CCN(/C(N)=N/C(=N/S(=O)(=O)c2ccc(Cl)cc2)N2CC(c3ccccc3)C(c3ccc(Cl)cc3)=N2)CC1` (centres unmarked) [Compound 59] displayed an inhibition constant (Ki) of 387 nM.

Staying with this assay, now noted: Table 1; read-out: Ki CB1.
Turning to `CN(C)/C(N)=N/C(=N/S(=O)(=O)c1ccc(Cl)cc1)N1CC(c2ccccc2)C(c2ccc(Cl)cc2)=N1` (racemic) [Compound 44, rac-N-(amino(dimethylamino)methylene)-3-(4-chlorophenyl)-N-((4-chlorophenyl)sulfonyl)-4-phenyl-4,5-dihydro-1H-pyrazole-1-carboximidamide], the Ki is 171 nM.
For the molecule `N/C(=N\C(=N\S(=O)(=O)c1ccc(Cl)cc1)N1CC(c2ccccc2)C(c2ccc(Cl)cc2)=N1)N1CCOCC1` (centres unmarked) [Compound 52], the Ki stood at 193 nM.
As to `CC(C)(C)C(N)=NC(=NS(=O)(=O)c1ccc(Cl)cc1)N1CC(c2ccccc2)C(c2ccc(Cl)cc2)=N1` (centres unmarked) [Compound 3], the Ki came out at 7 nM.

Still in this assay, the particulars now being: Table 2; read-out: Ki CB1.
In the case of `CN(Cc1ccccc1)/C(N)=N/C(=N/S(=O)(=O)c1ccc(Cl)cc1)N1CC(c2ccccc2)C(c2ccc(Cl)cc2)=N1` (centres unmarked) [Compound 49], the Ki was 343 nM.
As for `COC(CN(C)C(N)=NC(=NS(=O)(=O)c1ccc(Cl)cc1)N1CC(c2ccccc2)C(c2ccc(Cl)cc2)=N1)OC` (centres unmarked) [Compound 68], the Ki is 443 nM.
In the case of `CCN(CC)/C(N)=N/C(=N/S(=O)(=O)c1ccc(Cl)cc1)N1CC(c2ccccc2)C(c2ccc(Cl)cc2)=N1` (centres unmarked) [Compound 38], the Ki was found to be 49 nM.
Same read-out and setting: next, `N/C(=N/C(=N\S(=O)(=O)c1ccc(Cl)cc1)N1CC(c2ccccc2)C(c2ccc(Cl)cc2)=N1)c1ccc(F)cc1` (single isomer, unassigned) [Compound 10E2]: 524 nM; `NC(=NC(=NS(=O)(=O)c1ccc(I)cc1)N1CC(c2ccccc2)C(c2ccc(Cl)cc2)=N1)c1ccc(F)cc1F` (centres unmarked) [Compound 88]: 4.8 nM; `N/C(=N\C(=N\S(=O)(=O)c1ccc(Cl)cc1)N1CC(c2ccccc2)C(c2ccc(Cl)cc2)=N1)n1cccn1` (centres unmarked) [Compound 63]: 11 nM.
Regarding `NC(=NC(=NS(=O)(=O)c1ccc(Cl)cc1)N1CC(c2ccccc2)C(c2ccc(Cl)cc2)=N1)c1cccc(Br)c1` (centres unmarked) [Compound 14], the inhibition constant Ki turned out to be 56 nM.
With `NC(=NC(=NS(=O)(=O)c1ccc(Cl)cc1)N1CC(c2ccccc2)C(c2ccc(Cl)cc2)=N1)NCC12CC3CC(CC(C3)C1)C2` (centres unmarked) [Compound 62], the Ki is greater than 1000 nM.
Consider `O=S(=O)(N=C(N=C1CCCCN1)N1CC(c2ccccc2)C(c2ccc(Cl)cc2)=N1)c1ccc(Cl)cc1` (centres unmarked) [Compound 6], for which the inhibition constant (Ki) amounted to 29 nM.
For `CC(=O)N/C(N)=N/C(=N/S(=O)(=O)c1ccc(C(C)(C)C)cc1)N1CC(c2ccccc2)C(c2ccc(Cl)cc2)=N1` (centres unmarked) [Compound 91], the Ki amounted to 1.3 nM.
As for `NC(=NC(=NS(=O)(=O)c1ccc(Cl)cc1)N1CC(c2ccccc2)C(c2ccc(Cl)cc2)=N1)c1ccc([N+](=O)[O-])cc1` (centres unmarked) [Compound 9], the inhibitory constant (Ki) came out at 62 nM.
The same measure, in the same setting: next, `CC(N)=NC(=NS(=O)(=O)c1ccc(C(C)(C)C)cc1)N1CC(c2ccccc2)C(c2ccc(Cl)cc2)=N1` (centres unmarked) [Compound 98]: 48 nM.
As for `NC(=NC(=NS(=O)(=O)c1ccc(Cl)cc1)N1CC(c2ccccc2)C(c2ccc(Cl)cc2)=N1)NC12CC3CC(CC(C3)C1)C2` (centres unmarked) [Compound 64], the Ki is greater than 1000 nM.
Same read-out and setting: next, `NC(=NC(=NS(=O)(=O)c1ccc(I)cc1)N1CC(c2ccccc2)C(c2ccc(Cl)cc2)=N1)c1ccc(F)cc1` (centres unmarked) [Compound 87]: 12 nM.
On to `CC(C)SC(N)=NC(=NS(=O)(=O)c1ccc(Cl)cc1)N1CC(c2ccccc2)C(c2ccc(Cl)cc2)=N1` (centres unmarked) [Compound 23], for which the Ki is 166 nM.
Turning to `NC(=NC(=NS(=O)(=O)c1ccc(C(F)(F)F)cc1)N1CC(c2ccccc2)C(c2ccc(Cl)cc2)=N1)NC(=O)/C=C/c1ccccc1` (centres unmarked) [Compound 101], the Ki turned out to be 5.5 nM.
As to `NC(COc1ccccc1)=NC(=NS(=O)(=O)c1ccc(Cl)cc1)N1CC(c2ccccc2)C(c2ccc(Cl)cc2)=N1` (centres unmarked) [Compound 13], the inhibition constant (Ki) amounted to 72 nM.
Still for that read-out and setting: next, `NC(=NC(=NS(=O)(=O)c1ccc(Cl)cc1)N1CC(c2ccccc2)C(c2ccc(Cl)cc2)=N1)SCCCc1ccccc1` (centres unmarked) [Compound 26]: 190 nM.
Regarding `CCCCN(CC)/C(N)=N/C(=N/S(=O)(=O)c1ccc(Cl)cc1)N1CC(c2ccccc2)C(c2ccc(Cl)cc2)=N1` (centres unmarked) [Compound 36], the Ki was found to be 535 nM.
With `CC(C)C(N)=NC(=NS(=O)(=O)c1ccc(Cl)cc1)N1CC(c2ccccc2)C(c2ccc(Cl)cc2)=N1` (centres unmarked) [Compound 5], the inhibition constant Ki was determined as 29 nM.
For the molecule `CC(N)=NC(=NS(=O)(=O)c1ccc(C#N)cc1)N1CC(c2ccccc2)C(c2ccc(Cl)cc2)=N1` (centres unmarked) [Compound 100], the Ki came to 16 nM.
As to `NC(=NC(=NS(=O)(=O)c1ccc(Cl)cc1)N1CC(c2ccccc2)C(c2ccc(Cl)cc2)=N1)c1ccc(F)cc1` (centres unmarked) [Compound 10], the Ki was 7.9 nM.
For the molecule `COc1cccc(C(N)=NC(=NS(=O)(=O)c2ccc(Cl)cc2)N2CC(c3ccccc3)C(c3ccc(Cl)cc3)=N2)c1` (centres unmarked) [Compound 17], the Ki stood at 86 nM.
Turning to `NC(=NC(=NS(=O)(=O)c1ccc(C(F)(F)F)cc1)N1CC(c2ccccc2)C(c2ccc(Cl)cc2)=N1)c1ccc(Cl)cc1` (centres unmarked) [Compound 82], the Ki amounted to 16 nM.
As for `CON(C)/C(N)=N/C(=N/S(=O)(=O)c1ccc(Cl)cc1)N1CC(c2ccccc2)C(c2ccc(Cl)cc2)=N1` (centres unmarked) [Compound 42], the Ki worked out at 23 nM.
In the case of `CC(C)(C)C(N)=NC(=NS(=O)(=O)c1ccc(I)cc1)N1CC(c2ccccc2)C(c2ccc(Cl)cc2)=N1` (centres unmarked) [Compound 89], the Ki stood at 4.1 nM.
Same read-out and setting: next, `NC(=NC(=NS(=O)(=O)c1ccc(Cl)cc1)N1CC(c2ccccc2)C(c2ccc(Cl)cc2)=N1)SCc1ccccc1` (centres unmarked) [Compound 24]: 127 nM; `NC(=NC(=NS(=O)(=O)c1ccc(I)cc1)N1CC(c2ccccc2)C(c2ccc(Cl)cc2)=N1)c1ccc(Cl)cc1` (centres unmarked) [Compound 86]: 11 nM; `NC(=NC(=NS(=O)(=O)c1ccc(Cl)cc1)N1CC(c2ccccc2)C(c2ccc(Cl)cc2)=N1)c1ccc(Br)cc1` (centres unmarked) [Compound 20]: 27 nM.
Still for that read-out and setting: next, `CC(N)=NC(=NS(=O)(=O)c1ccc(I)cc1)N1CC(c2ccccc2)C(c2ccc(Cl)cc2)=N1` (centres unmarked) [Compound 29]: 10 nM; `COc1ccc(S(=O)(=O)N=C(N=C(C)N)N2CC(c3ccccc3)C(c3ccc(Cl)cc3)=N2)cc1` (centres unmarked) [Compound 32]: 182 nM.
As for `N/C(=N/C(=N\S(=O)(=O)c1ccc(Cl)cc1)N1CC(c2ccccc2)C(c2ccc(Cl)cc2)=N1)c1ccc(F)cc1` (single isomer, unassigned) [Compound 10E1], the Ki is 6.5 nM.
For `CC(C)(C)C(N)=NC(=NS(=O)(=O)c1ccc(C(F)(F)F)cc1)N1CC(c2ccccc2)C(c2ccc(Cl)cc2)=N1` (centres unmarked) [Compound 81], the Ki came to 3.4 nM.
Turning to `CC(=O)N/C(N)=N/C(=N/S(=O)(=O)c1ccc(Cl)cc1)N1CC(c2ccccc2)C(c2ccc(Cl)cc2)=N1` (centres unmarked) [Compound 65], the inhibition constant (Ki) worked out at 9 nM.
Consider `COCCN/C(N)=N/C(=N/S(=O)(=O)c1ccc(Cl)cc1)N1CC(c2ccccc2)C(c2ccc(Cl)cc2)=N1` (centres unmarked) [Compound 40], for which the inhibitory constant (Ki) is 848 nM.
On to `Cc1cc(C)n(C(N)=NC(=NS(=O)(=O)c2ccc(C(F)(F)F)cc2)N2CC(c3ccccc3)C(c3ccc(Cl)cc3)=N2)n1` (centres unmarked) [Compound 85], for which the Ki amounted to 1.5 nM.
Take `CC(N)=NC(=NS(=O)(=O)c1ccc(C)cc1)N1CC(c2ccccc2)C(c2ccc(Cl)cc2)=N1` (centres unmarked) [Compound 31]: the Ki is 87 nM.
As to `N/C(=N\C(=N\S(=O)(=O)c1ccc(Cl)cc1)N1CC(c2ccccc2)C(c2ccc(Cl)cc2)=N1)NCc1ccccc1` (centres unmarked) [Compound 50], the Ki is 505 nM.
As for `CC(C)N/C(N)=N/C(=N/S(=O)(=O)c1ccc(Cl)cc1)N1CC(c2ccccc2)C(c2ccc(Cl)cc2)=N1` (centres unmarked) [Compound 47], the Ki is 516 nM.
`CN(CC(C)(C)C)C(N)=NC(=NS(=O)(=O)c1ccc(Cl)cc1)N1CC(c2ccccc2)C(c2ccc(Cl)cc2)=N1` (centres unmarked) [Compound 67]: the Ki worked out at 2390 nM.
With `CN(CCC#N)/C(N)=N/C(=N/S(=O)(=O)c1ccc(Cl)cc1)N1CC(c2ccccc2)C(c2ccc(Cl)cc2)=N1` (centres unmarked) [Compound 61], the Ki was determined as 203 nM.
In the case of `COCCN(C)/C(N)=N/C(=N/S(=O)(=O)c1ccc(Cl)cc1)N1CC(c2ccccc2)C(c2ccc(Cl)cc2)=N1` (centres unmarked) [Compound 43], the Ki turned out to be 908 nM.
Regarding `CC(N)=NC(=NS(=O)(=O)c1ccc2ccccc2c1)N1CC(c2ccccc2)C(c2ccc(Cl)cc2)=N1` (centres unmarked) [Compound 33], the Ki was 8 nM.
Turning to `NC(=NC(=NS(=O)(=O)c1ccc(Cl)cc1)N1CC(c2ccccc2)C(c2ccc(Cl)cc2)=N1)c1ccc(F)cc1F` (centres unmarked) [Compound 19], the inhibition constant Ki was 7.7 nM.
For the molecule `N/C(=N\C(=N\S(=O)(=O)c1ccc(Cl)cc1)N1CC(c2ccccc2)C(c2ccc(Cl)cc2)=N1)N1CCOCC1` (centres unmarked) [Compound 52], the Ki was found to be 193 nM.
Consider `N/C(=N\C(=N\S(=O)(=O)c1ccc(Cl)cc1)N1CC(c2ccccc2)C(c2ccc(Cl)cc2)=N1)NCCc1c[nH]c2ccccc12` (centres unmarked) [Compound 58], for which the Ki came out at 585 nM.
Regarding `CCCN(CCC)/C(N)=N/C(=N/S(=O)(=O)c1ccc(Cl)cc1)N1CC(c2ccccc2)C(c2ccc(Cl)cc2)=N1` (centres unmarked) [Compound 37], the Ki came to 138 nM.
Consider `NC(=NC(=NS(=O)(=O)c1ccc(Cl)cc1)N1CC(c2ccccc2)C(c2ccc(Cl)cc2)=N1)c1cccs1` (centres unmarked) [Compound 16], for which the inhibition constant Ki is 60 nM.
On the same count and under the same terms, next, `CC(C)(C)C(N)=NC(=NS(=O)(=O)c1ccc(Cl)cc1)N1CC(c2ccccc2)C(c2ccc(Cl)cc2)=N1` (centres unmarked) [Compound 3]: 7 nM; `NC(=NC(=NS(=O)(=O)c1ccc(Cl)cc1)N1CC(c2ccccc2)C(c2ccc(Cl)cc2)=N1)c1ccccc1F` (centres unmarked) [Compound 15]: 19 nM; `N/C(=N\C(=N\S(=O)(=O)c1ccc(Cl)cc1)N1CC(c2ccccc2)C(c2ccc(Cl)cc2)=N1)NC1CCCCC1` (centres unmarked) [Compound 57]: 419 nM.
For the molecule `COC(CN/C(N)=N/C(=N/S(=O)(=O)c1ccc(Cl)cc1)N1CC(c2ccccc2)C(c2ccc(Cl)cc2)=N1)OC` (centres unmarked) [Compound 60], the Ki is 443 nM.
The same measure, in the same setting: next, `NC(=NC(=NS(=O)(=O)c1ccc(C(F)(F)F)cc1)N1CC(c2ccccc2)C(c2ccc(Cl)cc2)=N1)c1ccc(F)cc1` (centres unmarked) [Compound 79]: 9 nM; `CC(N)=NC(=NS(=O)(=O)c1ccc(F)cc1)N1CC(c2ccccc2)C(c2ccc(Cl)cc2)=N1` (centres unmarked) [Compound 27]: 60 nM; `CC(C)(C)N/C(N)=N/C(=N/S(=O)(=O)c1ccc(Cl)cc1)N1CC(c2ccccc2)C(c2ccc(Cl)cc2)=N1` (centres unmarked) [Compound 46]: 49 nM.
